Results on 39 compounds are retold here after the Deep4Chem optical property database.

The nature of the data set: solvent given as SMILES.

In turn, `c1cc2ccc1-c1ccc(cc1)-c1sc(c3c1OCCO3)-c1ccc(cc1)-c1ccc(cc1)-c1sc(c3c1OCCO3)-c1ccc(cc1)-c1ccc(cc1)-c1sc-2c2c1OCCO2` came in with an absorption maximum (in C1CCOC1) of 371 nm.
`N#CC(C#N)=Cc1ccc2c(c1)c1ccccc1n2-c1cc2ccccc2c2ccccc12`: the absorption maximum is recorded as 395 nm (in CC#N), 393 nm (in CCCCC), 402 nm (in Cc1ccccc1) and 406 nm (in ClCCl).
Consider `NCCCCCCCCCCCCN1C(=O)c2ccc3c4ccc5c6c(ccc(c7ccc(c2c37)C1=O)c64)C(=O)N(c1ccc(O)cc1)C5=O`, for which the absorption maximum (in CN(C)C=O) worked out at 525 nm.
Turning to `COC(=O)c1ccc(-c2nc3ccc(N(C)C)cc3s2)cc1`, the absorption maximum reads like this: (in C1CCCCC1) 387 nm; (in CC#N) 392 nm; (in CC(C)O) 393 nm; (in CO) 396 nm; (in CS(C)=O) 405 nm; (in ClC(Cl)Cl) 395 nm. Besides, for the setting “in c1ccccc1”, the absorption maximum was 394 nm.
`COc1ccc(C#Cc2c3cc4ccccc4cc3c(C#C[Si](C(C)C)(C(C)C)C(C)C)c3cc4ccccc4cc23)cc1` returned an absorption maximum (in ClCCl) of 655 nm.
The same measure, in the same setting: with `Cc1cc2cc(C)c3c4ccccc4[nH]c3c2s1` the figure was 312 nm.
For the compound `CC1=N/C(=C\c2cc(N(C)C)ccc2C#N)C(=O)N1C`, the absorption maximum worked out at 363 nm (in C1CCOC1), 361 nm (in CC#N) and 359 nm (in CCCCCC).
In the case of `O=C1OC(c2ccccc2)=N/C1=C\c1ccc(N(c2ccc(/C=C3\N=C(c4ccccc4)OC3=O)cc2)c2ccc(/C=C3/N=C(c4ccccc4)OC3=O)cc2)cc1`, the absorption maximum was determined as 497.5 nm (in C1CCCCC1); 500 nm (in C1CCOC1); 502 nm (in C1COCCO1); 498.5 nm (in CC1CCCCC1); 498 nm (in CC#N); 499 nm (in CC(C)=O). The absorption maximum is, setting by setting: (in CC(C)CC(C)(C)C) 492 nm; (in CCCCC) 489 nm; (in CCCCCC) 491 nm; (in CCCCCCC) 495 nm; (in CCCCOCCCC) 497.5 nm; (in CCOC(C)=O) 496 nm. The absorption maximum came to 496.5 nm (in CCOCC); 504 nm (in CN(C)C=O); 506 nm (in CS(C)=O); 505.5 nm (in Cc1ccccc1); 509.5 nm (in ClC(Cl)Cl).
Under “in C1CCCCC1”, `CC(C)c1cc(C(C)C)c(B2c3cc(-n4c5ccc(C(C)(C)C)cc5c5cc(C(C)(C)C)ccc54)ccc3N(c3ccccc3)c3ccc(-n4c5ccc(C(C)(C)C)cc5c5cc(C(C)(C)C)ccc54)cc32)c(C(C)C)c1` had an absorption maximum of 410.54 nm.
Consider `COc1cc(OC)c2c(c1)C(=O)c1cc(OC)cc(OC)c1-2`, for which the absorption maximum came out at 489 nm (in C1CCCCC1), 504 nm (in CC#N) and 506 nm (in CCO).
Where the note is “in c1ccccc1”, `CN(C)c1ccc2nc(-c3ccccc3)c(=O)oc2c1` had an absorption maximum of 436 nm.
Where the note is “in CC#N”, `C[n+]1ccc(/C=C/c2cc[n+](C)cc2)cc1` came in with an absorption maximum of 317 nm.
Compound `FC(F)(F)C(F)(F)C(F)(F)C1=NC2=C(Sc3ccccc3)C=C3c4cc(Sc5ccccc5)c5nc(C(F)(F)C(F)(F)C(F)(F)F)nc6c(Sc7ccccc7)cc(c4c56)=C4C=C(Sc5ccccc5)C(=N1)C2C34` (stereo not drawn) gave an absorption maximum (in C1CCOC1) of 565 nm.
`N#Cc1ncc(-c2c3ccccc3c(-c3cnc(C#N)nc3)c3ccccc23)cn1` returned an absorption maximum (in CCO) of 395 nm and an absorption maximum (in ClCCl) of 397 nm.
As to `CCC1=C(C)C2=C(C)c3cccn3[B-](F)(F)[N+]2=C1C`, the absorption maximum came to 504 nm (in C1CCCCC1); 495 nm (in CC(C)=O); 497 nm (in CCO); 496 nm (in CCOC(C)=O); 495.5 nm (in CO); 492 nm (in OCC(F)(F)F).
Turning to `COc1ccc(-c2cc3c(ccc(=O)n3C)s2)cc1`, the absorption maximum reads like this: (in CC#N) 376 nm; (in ClCCl) 378 nm.
The compound `CN(C)c1ccc2c(c1)C(C)(C)C(=O)C=C2` came in with an absorption maximum (in O) of 413 nm.
In the case of `CC(C)(C)c1ccc2c(c1)oc1nc3oc4ccc(-n5c6ccccc6c6ccccc65)cc4c3cc12`, the absorption maximum (in ClC(Cl)Cl) was determined as 350 nm.
Under “in ClCCl”, `O=c1c2cc(C#Cc3ccc(Cl)cc3)ccc2nc2ccc(C#Cc3ccc(Cl)cc3)cn12` yielded an absorption maximum of 382 nm.
Compound `O=c1oc2ccccc2nc1-c1ccc(Cl)cc1` returned an absorption maximum (in c1ccccc1) of 344 nm.
Where the note is “in Cc1ccccc1”, `CCCC1=Cc2nc1ccc1[nH]c(cc1CCOC)c1nc(ccc3[nH]c2cc3CCC)C(CCOC)=C1` registered an absorption maximum of 638 nm.
For `Cc1nc(-c2cc(C(F)(F)F)ccc2O)n2c1CCCC2`, where the note is “in ClCCl”, the absorption maximum is given as 316 nm.
`N#Cc1c(C#N)c2cc(Br)ccc2c2ccc(Br)cc12` returned an absorption maximum (in ClC(Cl)Cl) of 350 nm.
Consider `Cc1cc2c(ccc3c[n+](C)c(C)cc32)c[n+]1C`, for which, where the note is “in CC#N”, the absorption maximum came out at 400 nm.
Still for that read-out and setting: next, `CC(C)Oc1ccc(C#Cc2cc3ccccc3oc2=O)cc1`: 356 nm.
`c1ccc(N(c2ccccc2)c2ccc(-c3cccc4nc5ccccc5cc34)cc2)cc1`: the absorption maximum runs as follows: (in C1CCOC1) 391 nm; (in CC#N) 390 nm; (in CC(C)OC(C)C) 389 nm; (in CCCCCC) 386 nm; (in CCCCOCCCC) 390 nm; (in CCN(CC)CC) 389 nm. Moreover, the absorption maximum is 390 nm (in CCOC(C)=O), 386 nm (in CCOCC), 390 nm (in CN(C)C=O) and 396 nm (in ClCCl).
In turn, `Cc1cc(-c2ccc(C(C)(C)C)cc2)c2nsnc2c1-c1ccc(N(c2ccccc2)c2ccccc2)cc1` returned an absorption maximum (in ClCCl) of 402 nm.
With `CC(C)[Si](C#Cc1ccc(C#C[Si](C(C)C)(C(C)C)C(C)C)c2nc3cc4c(cc3nc12)[C@H]1c2ccccc2[C@@H]4c2ccccc21)(C(C)C)C(C)C`, the absorption maximum (in CCCCCC) amounted to 435 nm and the absorption maximum (in ClCCl) came to 435 nm.
With `CCN(CC)c1ccc2c(c1)oc(=O)c1c(-c3ccccc3C(=O)O)c3ccc(=[N+](CC)CC)cc-3oc12`, the absorption maximum is, setting by setting: (in CCO) 591 nm; (in ClC(Cl)Cl) 602 nm; (in O) 594 nm.
On to `CC(C)(C)c1ccc(-c2c3ccccc3c3n2[B-](F)(F)[N+]2=Cc4c5ccccc5c(-c5ccc(C(C)(C)C)cc5)n4[B-](F)(F)[N+]2=C3)cc1`, for which the absorption maximum was determined as 557 nm (in CC#N); 568 nm (in CCCCCC); 566 nm (in CN(C)C=O); 573 nm (in Cc1ccccc1); 567 nm (in ClCCl).
For the compound `CCc1c(C)[nH]c(C2=[N+]3C(=Cc4c(C)cc(C)n4[B-]3(F)F)c3ccccc32)c1C`, the absorption maximum came to 615 nm (in C1CCOC1); 607 nm (in CC#N); 616 nm (in CCCCCC); 610 nm (in CO); 623 nm (in Cc1ccccc1); 616 nm (in ClCCl).
On to `O=C1/C(=C/C=C/c2cc3c4c(c2)CCCN4CCC3)CC/C1=C\C=C\c1cc2c3c(c1)CCCN3CCC2`, for which the absorption maximum is, setting by setting: (in CC#N) 510 nm; (in CC(C)=O) 515 nm; (in CC(C)O) 535 nm; (in CCCCCC) 457 nm; (in CCCCO) 543 nm; (in CCCO) 541 nm. Also, the absorption maximum is on record as 538 nm (in CCO); 495 nm (in CCOC(C)=O); 494 nm (in CCOCC); 532 nm (in CN(C)C=O); 523 nm (in CO); 539 nm (in CS(C)=O). For the same compound, the absorption maximum came to 505 nm (in Cc1ccccc1); 529 nm (in ClCCl); 584 nm (in OCC(F)(F)F); 530 nm (in S=C=S); 510 nm (in c1ccccc1); 534 nm (in c1ccncc1).
In the case of `CC1(C)CC(/C=C/c2ccc(-n3ccnc3)cc2)=CC(=C(C#N)C#N)C1`, the absorption maximum (in C1CCOC1) turned out to be 398 nm; the absorption maximum (in CC#N) came to 390 nm; the absorption maximum (in CCO) is recorded as 391 nm; the absorption maximum (in CCOC(C)=O) came to 390 nm; the absorption maximum (in ClCCl) was 393 nm; the absorption maximum (in c1ccccc1) is given as 397 nm.
In turn, `Cc1ccc(/N=C2\N=C(N)c3cccc4cccc2c34)cc1` displayed an absorption maximum (in ClCCl) of 349 nm.
For the setting “in CC#N”, `COc1ccc(-c2nc3c([nH]2)=C2C=C(Cl)S[C@@]2(C)[C@]2(C)SC(Cl)=CC=32)cc1` gave an absorption maximum of 295 nm.
On to `COc1ccc(-c2cc3c(s2)=CC2=C(C(F)(F)F)c4cc5sc(-c6ccc(OC)cc6)cc5n4[B-](F)(F)[N+]=32)cc1`, for which the absorption maximum was determined as 730 nm (in C1CCOC1) and 731 nm (in ClC(Cl)Cl).
As for `CCN(CC)c1ccc2cc(/C=C(\C#N)c3nc4ccccc4o3)c(=O)oc2c1`, the absorption maximum by setting is: (in C1COCCO1) 497 nm; (in CC#N) 510 nm; (in CCO) 516 nm; (in CCOC(C)=O) 506 nm; (in CN(C)C=O) 529 nm; (in CO) 509 nm. Also, the absorption maximum reads like this: (in CS(C)=O) 519 nm; (in Cc1ccccc1) 500 nm; (in ClCCl) 511 nm.
Consider `CCOC(=O)C1=CN(c2ccccc2)C=C(C(=O)OCC)C1c1ccccc1`, for which the absorption maximum (in C1CCOC1) came to 362 nm and the absorption maximum (in CO) is reported as 366 nm.
`O=C(/C=C(\O)c1ccc(N2c3ccccc3Oc3ccccc32)cc1)c1ccc(N2c3ccccc3Oc3ccccc32)cc1`: the absorption maximum (in Cc1ccccc1) is 441 nm.
